Our source for the inhibition and Ki values is ChEMBL document CHEMBL1144672, “The use of ligand-based de novo design for scaffold hopping and sidechain optimization: two case studies” (Bioorg Med Chem, 2008).

Assay [1] deals with T1, Gonadotropin-releasing hormone receptor (Homo sapiens) (UniProt P30968).
T1 sequence (whole entry): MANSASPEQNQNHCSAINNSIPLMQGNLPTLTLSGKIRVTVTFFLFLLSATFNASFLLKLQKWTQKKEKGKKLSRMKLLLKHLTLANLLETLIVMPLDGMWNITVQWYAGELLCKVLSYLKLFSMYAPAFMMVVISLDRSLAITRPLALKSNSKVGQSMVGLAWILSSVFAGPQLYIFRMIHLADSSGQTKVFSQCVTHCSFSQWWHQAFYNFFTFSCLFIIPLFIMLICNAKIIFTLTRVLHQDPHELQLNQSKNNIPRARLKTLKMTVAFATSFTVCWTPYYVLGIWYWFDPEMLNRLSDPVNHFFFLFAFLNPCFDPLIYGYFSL
The assay is described as follows: Inhibition of GnRH receptor at 10 uM.

Assay [2] has as its target T2, Gonadotropin-releasing hormone receptor (Homo sapiens, UniProt P30968).
T2 sequence (P30968 whole entry): T1 sequence (whole entry)
The assay can be described thus: Inhibition of GnRH receptor.

By inhibition is commonly meant the change of the read-out against control, counted positive when it falls. As usually defined, the Ki is the dissociation constant of the complex between target and ligand, obtained from inhibition or displacement. The low end stands for a stronger hold on the target, the high end for a looser hold on the target. As to `CC(CCN1CCc2c(c(=O)n(CCN3CCCCC3)c(=O)n2Cc2c(F)cccc2F)C1)CC(C)(C)C` (stereo not drawn), the inhibition in assay [1] was 50%. The affinity in assay [2] corresponds to a Ki of 4400 nM.
In the same order, the values of `CC(C)CN(C)CCn1c(=O)c2c(n(Cc3c(F)cccc3F)c1=O)CCN(Cc1ccc(OC(F)(F)F)cc1)C2` are 73% and 2500 nM.
The matching figures for `NC(CC1CCCCC1)Cn1c(=O)c2c(n(Cc3c(F)cccc3F)c1=O)CCN(Cc1ccc(Cl)cc1)C2` (stereo not drawn): 66% and 3200 nM.
`COc1cccc(-c2c(C)n(Cc3c(F)cccc3F)c(=O)n(CC(C)NCc3nccs3)c2=O)c1F` (stereo not drawn) returned an inhibition constant (Ki) in assay [2] of 6 nM.
Same read-out and setting: in the case of `CCOC(=O)c1cn(Cc2c(F)cccc2F)c2cc(-c3ccc(NC(=O)CC)cc3)c(CN(C)Cc3ccccc3)cc2c1=O` it was 50 nM.
In assay [1], `Cc1ccc(CN2CCc3c(c(=O)n(CC4CCNCC4)c(=O)n3Cc3c(F)cccc3F)C2)c(C)c1` yielded an inhibition of 72%. The compound also showed an inhibitory constant (Ki) in assay [2] of 1900 nM.
As for `COc1ccc(CN2CC3CC(c4ccc(N(C)C)c5ccccc45)N4C(=O)N(CCN5CCOCC5)C(=O)C34C2)cc1NC(C)=O` (stereo not drawn), in assay [2], the Ki stood at 21 nM.
For the compound `CC(C)CN(C)CCn1c(=O)c2c(n(CCOc3ccccc3)c1=O)CCN(CCCC(F)(F)F)C2`, in assay [1], the inhibition is 0%.
Consider `Cc1ccc(CN2CCc3c(c(=O)n(CC4NCCc5ccccc54)c(=O)n3Cc3c(F)cccc3F)C2)c(C)c1` (stereo not drawn), for which the inhibition in assay [1] came out at 95%. In assay [2], this compound registered a Ki of 110 nM.
In assay [1], `O=c1c2c(n(Cc3c(F)cccc3F)c(=O)n1CCN1CCc3ccccc3C1)CCN(CC1CCCC1)C2` showed an inhibition of 16%.
With `Cc1cc(C)cc(-c2[nH]c3ccc(C(C)(C)C(=O)N4C5CCC4CC5)cc3c2C(C)CNCCCCc2ccnnc2)c1` (stereo not drawn), the Ki in assay [2] was found to be 0.7 nM.
`CNC(Cn1c(=O)c2c(n(Cc3c(F)cccc3F)c1=O)CCN(Cc1ccc(C)cc1C)C2)c1ccccc1` (stereo not drawn) came in with an inhibition in assay [1] of 100%. The compound further yielded a Ki in assay [2] of 50 nM.
